Patent publication US20250171438A1 (Agios Pharmaceuticals, Inc., priority 2022, published 2025)

Each compound was assayed against T1, human PAH with the R408W mutation (Homo sapiens, UniProt P00439, R408W) (assay: Cell Based Phenylalanine Flux Assay). Conditions: A375 cells expressing human R408W PAH; 24 hrs compound incubation; 13C-Tyrosine by LC-MS; average where tested multiple times; read-out: AC50.
T1 construct: expressed in transfected cells
T1 sequence (P00439 1-452 R408W): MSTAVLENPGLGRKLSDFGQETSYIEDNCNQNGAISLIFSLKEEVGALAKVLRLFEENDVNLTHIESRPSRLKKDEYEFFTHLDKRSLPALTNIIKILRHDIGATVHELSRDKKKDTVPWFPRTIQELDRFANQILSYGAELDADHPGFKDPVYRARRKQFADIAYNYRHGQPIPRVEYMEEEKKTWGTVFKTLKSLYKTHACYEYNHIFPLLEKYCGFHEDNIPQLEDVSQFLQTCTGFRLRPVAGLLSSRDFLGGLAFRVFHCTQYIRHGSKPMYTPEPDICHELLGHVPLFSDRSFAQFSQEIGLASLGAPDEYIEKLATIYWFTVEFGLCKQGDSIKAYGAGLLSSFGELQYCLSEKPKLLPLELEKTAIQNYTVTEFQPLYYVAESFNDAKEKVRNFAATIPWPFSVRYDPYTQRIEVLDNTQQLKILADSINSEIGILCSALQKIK
Design: scale not given here
With `C[C@H]1CN(C(=O)c2nnc(-c3cnn(C)c3)o2)[C@@H](c2nc3ccccc3s2)c2nc[nH]c21` [Example 1751, ((4R,7S)-4-(benzo[d]thiazol-2-yl)-7-methyl-6,7-dihydro-1H-imidazo[4,5-c]pyridin-5(4H)-yl)(5-(1-methyl-1H-pyrazol-4-yl)-1,3,4-oxadiazol-2-yl)methanone] the AC50 was > 5000 nM.
For `Cc1cnc(CC(=O)N2CCc3[nH]cnc3[C@H]2c2nc3ccccc3s2)s1` [Example 1457], the AC50 was 1000 to 5000 nM.
Work on `N#Cc1nc(OCCC(F)(F)F)oc1C(=O)N1CCc2[nH]cnc2[C@H]1c1nc2ccccc2s1` [Example 1674, (S)-5-(4-(benzo[d]thiazol-2-yl)-4,5,6,7-tetrahydro-1H-imidazo[4,5-c]pyridine-5-carbonyl)-2-(3,3,3-trifluoropropoxy)oxazole-4-carbonitrile] yielded an AC50 of 500 to 1000 nM.
Compound `Cc1nnc(C(=O)N2CCc3[nH]cnc3[C@H]2c2nc3c(F)cccc3s2)s1` [Example 1252, (S)-(4-(4-fluorobenzo[d]thiazol-2-yl)-6,7-dihydro-1H-imidazo[4,5-c]pyridin-5(4H)-yl)(5-methyl-1,3,4-thiadiazol-2-yl)methanone] has an AC50 of 1000 to 5000 nM.
`O=C(C1CC1)N1CCc2[nH]cnc2[C@H]1c1nc2ccc(Br)cc2[nH]1` [Example 952, (S)-(4-(6-bromo-1H-benzo[d]imidazol-2-yl)-6,7-dihydro-1H-imidazo[4,5-c]pyridin-5(4H)-yl)(cyclopropyl)methanone] was tested, and the AC50 was 500 to 1000 nM.
With `O=C(c1ocnc1C(F)(F)F)N1CC2(CC2)c2[nH]cnc2[C@H]1c1nc2ccccc2s1` [Example 1668, (S)-(4′-(benzo[d]thiazol-2-yl)spiro[cyclopropane-1,7′-imidazo[4,5-c]pyridin]-5′(1′H,4′H,6′H)-yl)(4-(trifluoromethyl)oxazol-5-yl)methanone] the AC50 was < 500 nM.
For `O=C(c1cnn2cc(F)ccc12)N1CCc2[nH]cnc2[C@@H]1c1nc2ccccc2s1` [Example 1040, (R)-(4-(benzo[d]thiazol-2-yl)-6,7-dihydro-1H-imidazo[4,5-c]pyridin-5(4H)-yl)(6-fluoropyrazolo[1,5-a]pyridin-3-yl)methanone], the AC50 was > 5000 nM.
Compound `Nc1nc(C(F)(F)F)c(C(=O)N2CCc3[nH]cnc3[C@@H]2c2nc3ccccc3s2)o1` [Example 1534, (R)-(2-amino-4-(trifluoromethyl)oxazol-5-yl)(4-(benzo[d]thiazol-2-yl)-6,7-dihydro-1H-imidazo[4,5-c]pyridin-5(4H)-yl)methanone] has an AC50 of 500 to 1000 nM.
Compound `Cn1nc(Cl)nc1C(=O)N1CCc2[nH]cnc2[C@@H]1c1nc2c(F)cccc2s1` [Example 1956, (R)-(3-chloro-1-methyl-1H-1,2,4-triazol-5-yl)(4-(4-fluorobenzo[d]thiazol-2-yl)-6,7-dihydro-1H-imidazo[4,5-c]pyridin-5(4H)-yl)methanone] has an AC50 of 1000 to 5000 nM.
`O=C(c1cnn2ccc(Br)cc12)N1CCc2[nH]cnc2[C@H]1c1nc2ccc(F)cc2s1` [Example 1137] gave an AC50 of 500 to 1000 nM.
For `Cc1nc(-c2cnn(CC(F)(F)F)c2)oc1C(=O)N1CCc2[nH]cnc2[C@H]1c1nc2ccccc2s1` [Example 1413], the AC50 was < 500 nM.
With `CCn1ncnc1C(=O)N1CCc2[nH]cnc2[C@H]1c1nc2ccccc2s1` [Example 1958] the AC50 was < 500 nM.
With `O=C(c1nccs1)N1CCc2[nH]cnc2[C@H]1c1nc2c(Cl)cccc2s1` [Example 1201, (S)-(4-(4-chlorobenzo[d]thiazol-2-yl)-6,7-dihydro-1H-imidazo[4,5-c]pyridin-5(4H)-yl)(thiazol-2-yl)methanone] the AC50 was 1000 to 5000 nM.
`Cn1nc(CF)cc1C(=O)N1CCc2[nH]cnc2[C@@H]1c1nc2c(F)cccc2s1` [Example 1918, (R)-(4-(4-fluorobenzo[d]thiazol-2-yl)-6,7-dihydro-1H-imidazo[4,5-c]pyridin-5(4H)-yl)(3-(fluoromethyl)-1-methyl-1H-pyrazol-5-yl)methanone] showed an AC50 of 1000 to 5000 nM.
For `O=C(CCc1nccs1)N1CCc2[nH]cnc2[C@@H]1c1nc2ccc(Br)cc2[nH]1` [Example 909, (R)-1-(4-(6-bromo-1H-benzo[d]imidazol-2-yl)-6,7-dihydro-1H-imidazo[4,5-c]pyridin-5(4H)-yl)-3-(thiazol-2-yl)propan-1-one], the AC50 was > 5000 nM.
For `O=C(c1cnn2cc(CN3CCC(F)(F)C3)ccc12)N1CCc2[nH]cnc2[C@@H]1c1nc2ccccc2s1` [Example 1314, (R)-(4-(benzo[d]thiazol-2-yl)-6,7-dihydro-1H-imidazo[4,5-c]pyridin-5(4H)-yl)(6-((3,3-difluoropyrrolidin-1-yl)methyl)pyrazolo[1,5-a]pyridin-3-yl)methanone], the AC50 was > 5000 nM.
For `Cc1ncoc1C(=O)N1CCc2[nH]cnc2[C@H]1c1nc2ccccc2[nH]1` [Example 993, (S)-(4-(1H-benzo[d]imidazol-2-yl)-6,7-dihydro-1H-imidazo[4,5-c]pyridin-5(4H)-yl)(4-methyloxazol-5-yl)methanone], the AC50 was < 500 nM.
In the case of `N#Cc1nc(N2CCOCC2)oc1C(=O)N1CCc2[nH]cnc2[C@H]1c1nc2ccccc2s1` [Example 1705, (S)-5-(4-(benzo[d]thiazol-2-yl)-4,5,6,7-tetrahydro-1H-imidazo[4,5-c]pyridine-5-carbonyl)-2-morpholinooxazole-4-carbonitrile], the AC50 is reported as 500 to 1000 nM.
`O=C(c1cnc(-c2ccc(C(F)(F)F)nc2)s1)N1CCc2[nH]cnc2[C@H]1c1nc2ccccc2s1` [Example 1356] showed an AC50 of 500 to 1000 nM.
With `Cc1ccc2c(C(=O)N3CCc4[nH]cnc4[C@@H]3c3nc4c(F)cccc4s3)cnn2c1` [Example 1174, (R)-(4-(4-fluorobenzo[d]thiazol-2-yl)-6,7-dihydro-1H-imidazo[4,5-c]pyridin-5(4H)-yl)(6-methylpyrazolo[1,5-a]pyridin-3-yl)methanone] the AC50 was 1000 to 5000 nM.
In the case of `CC(C)(O)c1nnc(C(=O)N2CCc3[nH]cnc3[C@@H]2c2nc3ccccc3s2)o1` [Example 1507, (R)-(4-(benzo[d]thiazol-2-yl)-6,7-dihydro-1H-imidazo[4,5-c]pyridin-5(4H)-yl)(5-(2-hydroxypropan-2-yl)-1,3,4-oxadiazol-2-yl)methanone], the AC50 is reported as 1000 to 5000 nM.
In the case of `O=C(CCc1nccs1)N1CCc2[nH]cnc2[C@@H]1c1nc2cccc(Br)c2s1` [Example 1122, (R)-1-(4-(7-bromobenzo[d]thiazol-2-yl)-6,7-dihydro-1H-imidazo[4,5-c]pyridin-5(4H)-yl)-3-(thiazol-2-yl)propan-1-one], the AC50 is reported as 1000 to 5000 nM.
`CN(C)Cc1nc(C(F)F)c(C(=O)N2CCc3[nH]cnc3[C@H]2c2nc3ccccc3s2)o1` [Example 1781] was tested, and the AC50 was < 500 nM.
For `Cn1cc(C(=O)N2CCc3[nH]cnc3[C@@H]2c2nc3c(F)cccc3s2)c(Cl)n1` [Example 1643, (R)-(3-chloro-1-methyl-1H-pyrazol-4-yl)(4-(4-fluorobenzo[d]thiazol-2-yl)-6,7-dihydro-1H-imidazo[4,5-c]pyridin-5(4H)-yl)methanone], the AC50 was 1000 to 5000 nM.
`CC(C)(O)Cn1cc(C(=O)N2CCc3[nH]cnc3[C@@H]2c2nc3c(F)cccc3s2)c(Cl)n1` [Example 1993, (R)-(3-chloro-1-(2-hydroxy-2-methylpropyl)-1H-pyrazol-4-yl)(4-(4-fluorobenzo[d]thiazol-2-yl)-6,7-dihydro-1H-imidazo[4,5-c]pyridin-5(4H)-yl)methanone] gave an AC50 of 1000 to 5000 nM.

Same assay, conditions: A375 cells expressing human R408W PAH; 24 hrs with compound; 13C-Tyrosine by LC-MS; average where tested multiple times
For `O=C(CCC1CC1)N1CCc2[nH]cnc2C1c1nc2ccccc2[nH]1` (stereo not shown), the AC50 was “E, E”.
`NC(=O)Cn1cc(C(=O)N2CCc3[nH]cnc3C2c2nc3c(F)cccc3s2)c(Cl)n1` (stereo not shown) was tested, and the AC50 was “E, E”.

Same assay, conditions: A375 cells expressing human R408W PAH; 24 hrs with compound; 13C-Tyrosine by LC-MS; average where tested multiple times; read-out: AC50
Work on `O=C(Cc1nccs1)N1CCc2[nH]cnc2C1c1nc2cc(F)ccc2s1` (stereo not shown) yielded an AC50 of 1000 to 5000 nM.
`O=C(c1cnco1)N1CC2(CC2)c2[nH]cnc2C1c1nc2c(F)cccc2s1` (stereo not shown) gave an AC50 of 1000 to 5000 nM.
`O=C(Cc1ccccn1)N1CCc2[nH]cnc2[C@H]1c1nc2ccccc2[nH]1` [(S)-1-(4-(1H-benzo[d]imidazol-2-yl)-6,7-dihydro-1H-imidazo[4,5-c]pyridin-5(4H)-yl)-2-(pyridin-2-yl)ethanone] was tested, and the AC50 was 1000 to 5000 nM.
`O=C(c1ccsn1)N1CCc2[nH]cnc2[C@H]1c1nc2ccccc2[nH]1` [(S)-(4-(1H-benzo[d]imidazol-2-yl)-1,4,6,7-tetrahydro-5H-imidazo[4,5-c]pyridin-5-yl)(isothiazol-3-yl)methanone] was tested, and the AC50 was 1000 to 5000 nM.
For `O=C(Cc1nc(C(F)(F)F)cs1)N1CCc2[nH]cnc2C1c1nc2ccc(Br)cc2[nH]1` (stereo not shown), the AC50 was > 5000 nM.
For `O=C(c1nc(Cl)cs1)N1CCc2[nH]cnc2C1c1nc2c(F)cccc2s1` (stereo not shown), the AC50 was > 5000 nM.
`O=C(N1CCC(O)C1)N1CCc2[nH]cnc2C1c1nc2ccccc2s1` (stereo not shown) showed an AC50 of 1000 to 5000 nM.
For `O=C(c1nnc(CCC(F)(F)F)o1)N1CCc2[nH]cnc2C1c1nc2ccccc2s1` (stereo not shown), the AC50 was 1000 to 5000 nM.
In the case of `O=C(Cc1nccs1)N1CCc2[nH]cnc2C1c1nc2ccc(Cl)cc2[nH]1` (stereo not shown), the AC50 is reported as > 5000 nM.
In the case of `Cc1nnc(CCC(=O)N2CCc3[nH]cnc3C2c2nc3ccc(F)cc3[nH]2)s1` (stereo not shown), the AC50 is reported as > 5000 nM.
`O=C(Cc1nc(C(F)(F)F)cs1)N1CCc2[nH]cnc2C1c1nc2ccc(F)cc2[nH]1` (stereo not shown) was tested, and the AC50 was 1000 to 5000 nM.
With `Cc1nc(CCCN(C)C)oc1C(=O)N1CCc2[nH]cnc2C1c1nc2ccccc2s1` (stereo not shown) the AC50 was 1000 to 5000 nM.
In the case of `Cn1cnc(C(=O)N2CCc3[nH]cnc3C2c2nc3ccccc3s2)n1` (stereo not shown), the AC50 is reported as > 5000 nM.
With `Cn1nc(CO)cc1C(=O)N1CCc2[nH]cnc2[C@@H]1c1nc2c(F)cccc2s1` (single isomer, unassigned) the AC50 was > 5000 nM.
With `O=C(Cc1coc(C(F)F)n1)N1CCc2[nH]cnc2C1c1nc2ccccc2s1` (stereo not shown) the AC50 was > 5000 nM.
Compound `O=C(c1cnco1)N1CCc2[nH]cnc2C1c1nc2c(C(F)(F)F)cccc2s1` (stereo not shown) has an AC50 of 1000 to 5000 nM.
